Data taken from patent US5369030A, “Method of inducing cellular differentiations and altering cell phenotype using ceramide analogs” (Duke University, priority 1992, dated 1994).
Where two headings read alike, the source gives them in different places.

Test system: HL-60 cells
Test: HL-60 cell growth/proliferation, cells counted with a hemocytometer
Type: cell-based, human
Conditions: for cell density / inhibition of cell growth (in words): Example 3C; for cell density: starting density 2×10^5 cells/ml; for inhibition of cell growth (in words): time course to 108 hours
Experimental: Human myelocytic leukemia HL-60 cells (20-45 passages (American Type Culture Collection, Rockville, Md., accession no. CCL 240) were obtained and grown in RPMI 1640 medium (Sigma Chemical Co., St. Louis, Mo.) containing 10% fetal calf serum at 37° C. in 5% CO2 incubator at a cell density of 2×10^5 cells/mi. The cells were washed once with phosphate buffered saline (PBS) and resuspended in serum-free media containing insulin (5 mg/liter) and transferrin (5 mg/liter) for 2-3 hours before treatment with various compounds.
HL-60 cells were treated with 3 μM of Cn-L-t-APPD with acyl chain lengths of C6, C8, C10, C12, C14, C16, and C18 (m=4, 6, 8, 10, 12, 14 and 16) in fresh ehtanol solution or with an ethanol vehicle and cell growth was determined following three days of treatment. Cell growth was quantified using a hemocytometer. Cell viability was judged by the ability to exclude trypan blue dye. Viability was always more than 80% unless otherwise described.
HL-60 cells (starting cell density of 2×10^5 cells/ml) were treated with different concentrations of C14-L-t-APPD and cells were counted following 24 and 72 hours of treatment. The results are representative of three experiments. A 1μM dose of C14-L-t-APPD had little or no effect on cell growth at 24 or 72 hours (approximately 105% and 130% of control, respectively). A 2μM dose inhibited cell growth to approximately 65% of the control at both 24 and 72 hours. […] The IC50% was approximately 2 μM (10 fmol/cell). IC50% is the concentration of test compound that causes 50% inhibition of cell growth in comparison with controls. Thus, similar to results with C2-ceramide, C14-APPD inhibited cell proliferation at different durations of treatment.
HL-60 cells (starting cell density of 2×10^5 cells/ml) were treated with 3 μM Cn-L-t-APPD derivatives with N-acyl chain lengths of C6, C8, C10, C12, C14, C16, and C18 (m=4,6,8,10, 12, 14, and 16) and cells were counted at 0, 12, 36, 60, 84 and 108 hours post treatment. The results are representative of 3 experiments.
N-acyl derivatives of 2-amino-1-(4'-nitrophenyl)-1,3-propanediol (Cn-D-t-ANPPD) were tested to determine the effects of chain length on HL-60 cell growth as described in Examples 3 A. HL-60 cells (at a starting cell density of 2×10^5 cells/ml) were treated with 3 μM of the diff analogs (C6, C8, C10, C12, C14, C16 and C18) of Cn-D-t-ANPPD, and cell growth was determined at three days. The control received no Cn-D-t-ANPPD. Treatment of HL-60 cells with C2-ceramide is included for comparison.
HL-60 cells were treated with the indicated concentrations and cell growth was determined following three days of treatment as described in Example 3B.
The suitability of phenylaminopropanediol derivatives as analogs of ceramide allowed further investigation of the structural requirements for ceramide-mediated biology. For these experiments, C14 (N-myristoyl) derivatives of different phenylaminoalcohols were synthesized and examined for their biologic activity. HL-60 cells (starting cell density of 2×10^5 cells/ml) were treated with 3 μM of C14 derivatives C14-L-t-APPD, C14-D-t-ANPPD, C14-D-e-APP-1, C14-L-e-APP-1, C14-APP-3 and C14-D-APP3. The structures of these compounds are provided in Table I. Cell growth was determined at 3 days as described in Example 3A. The results shown are averages of two determinations, and are representative of five different experiments.
and C14-L-e-APP-1 HL-60 cells were treated as described in Example 3B. growth was determined after 3 days of treatment.

[1] = Example 5, 3 μM C14 derivatives, 3 days
[2] = Homo sapiens, HL-60, 72 h, Example 4A, Table II, 3 μM Cn-D-t-ANPPD (C2-ceramide concentration not given), three days, read-out: CELL GROWTH (% OF CONTROL)
[3] = Example 3A, 3 μM Cn-L-t-APPD, three days

| SMILES | activity at 3 µM [2] [%] | cell growth, % of control [3] | cell density (3 μM, 60 hours) [mL⁻¹] | cell density (3 μM, 84 hours) [mL⁻¹] | cell density (3 μM, 108 hours) [mL⁻¹] | further results |
| --- | --- | --- | --- | --- | --- | --- |
| CCCCCCCCCCCCCC(=O)N[C@H](CO)Cc1ccccc1 [C14-LAPP-3] |  |  |  |  |  | cell growth, % of control [1]: 15% |
| CCCCCC(=O)N[C@H](CO)[C@H](O)c1ccc([N+](=O)[O-])cc1 [C6-D-t-ANPPD] | 70 |  |  |  |  |  |
| CCCCCCCCCCCCCCCC(=O)N[C@H](CO)[C@H](O)c1ccc([N+](=O)[O-])cc1 [C16-D-t-ANPPD] | 5 |  |  |  |  | CELL GROWTH (% OF CONTROL) (Example 4A, Table II, 3 μM Cn-D-t-ANPPD (C2-ceramide concentration not given), three days): ~5 % OF CONTROL |
| CCCCCCCC(=O)N[C@@H](CO)[C@@H](O)c1ccccc1 [C8-L-t-APPD] |  | 104% | 800000 | 1.4e+06 | 2.4e+06 |  |
| CCCCCCCCCCCCCC(=O)N[C@@H](C)[C@H](O)c1ccccc1 (relative stereo) [C14-DL-e-APP-1] |  |  |  |  |  | cell growth, % of control [1]: 60% |
| CCCCCCCCCC(=O)N[C@H](CO)[C@H](O)c1ccc([N+](=O)[O-])cc1 [C10-D-t-ANPPD] | 68 |  |  |  |  |  |
| CCCCCC(=O)N[C@@H](CO)[C@@H](O)c1ccccc1 [C6-L-t-APPD] |  | 105% | 800000 | 1.4e+06 | 2.4e+06 |  |
| CCCCCCCCCCCCCC(=O)N[C@@H](CO)Cc1ccccc1 [C14-DAPP-3] |  |  |  |  |  | cell growth, % of control [1]: 14% |
| CCCCCCCCCCCCCC(=O)N[C@H](C)[C@H](O)c1ccccc1 [C14-D-t-APP-1] |  |  |  |  |  | cell growth, % of control [1]: 49% |
| CCCCCCCCCCCCCCCC(=O)N[C@@H](CO)[C@@H](O)c1ccccc1 [C16-L-t-APPD] |  | ~65% | 400000 | 700000 | 1.2e+06 | inhibition of cell growth (in words) (3 μM): able to inhibit cell growth by significant amounts |
| CCCCCCCCCC(=O)N[C@@H](CO)[C@@H](O)c1ccccc1 [C10-L-t-APPD] |  | 90% | 800000 | 1.2e+06 | 2e+06 | inhibition at 3 µM (Homo sapiens, HL-60, 72 h, Example 3A, 3 μM, three days, read-out: reduction of cell growth as compared to a control): ~10% |
| CCCCCCCCCCCCCCCCCC(=O)N[C@@H](CO)[C@@H](O)c1ccccc1 [C18-L-t-APPD] |  | 116% | 800000 | 1.4e+06 | 2.3e+06 |  |
| CCCCCCCCCCCCCCCCCC(=O)N[C@H](CO)[C@H](O)c1ccc([N+](=O)[O-])cc1 [C18-D-t-ANPPD] | 82 |  |  |  |  |  |
| CCCCCCCCCCCC(=O)N[C@@H](CO)[C@@H](O)c1ccccc1 [C12-L-t-APPD] |  | approximately 40% | 300000 | 300000 | 600000 | inhibition of cell growth (in words) (3 μM): able to inhibit cell growth by significant amounts |
| CCCCCCCC(=O)N[C@H](CO)[C@H](O)c1ccc([N+](=O)[O-])cc1 [C8-D-t-ANPPD] | 70 |  |  |  |  |  |
| CCCCCCCCCCCCCC(=O)N[C@H](CO)[C@H](O)c1ccc([N+](=O)[O-])cc1 [C14-D-t-ANPPD] | 1 |  |  |  |  | CELL GROWTH (% OF CONTROL) (Example 4A, Table II, 3 μM Cn-D-t-ANPPD (C2-ceramide concentration not given), three days, listed as C14 chain analog): about 1 % OF CONTROL; activity at 0.1 µM (Homo sapiens, HL-60, 72 h, Example 4B, Table III, 0.1 μM, three days, read-out: CELL GROWTH (% OF CONTROL)): 110%; activity at 0.2 µM (Homo sapiens, HL-60, 72 h, Example 4B, Table III, 0.2 μM, three days, read-out: CELL GROWTH (% OF CONTROL)): 112%; activity at 0.3 µM (Homo sapiens, HL-60, 72 h, Example 4B, Table III, 0.3 μM, three days, read-out: CELL GROWTH (% OF CONTROL)): 113%; activity at 0.5 µM (Homo sapiens, HL-60, 72 h, Example 4B, Table III, 0.5 μM, three days, read-out: CELL GROWTH (% OF CONTROL)): 105%; activity at 1 µM (Homo sapiens, HL-60, 72 h, Example 4B, Table III, 1 μM, three days, read-out: CELL GROWTH (% OF CONTROL)): 85%; activity at 2 µM (Homo sapiens, HL-60, 72 h, Example 4B, Table III, 2 μM, three days, read-out: CELL GROWTH (% OF CONTROL)): 12%; activity at 3 µM (Homo sapiens, HL-60, 72 h, Example 4B, Table III, 3 μM, three days, read-out: CELL GROWTH (% OF CONTROL)): 3%; activity at 4 µM (Homo sapiens, HL-60, 72 h, Example 4B, Table III, 4 μM, three days, read-out: CELL GROWTH (% OF CONTROL)): 2%; IC50 (Homo sapiens, HL-60, 72 h, Example 4B, three days, read-out: concentration for 50% inhibition of cell growth): ~1500 nM |
| CCCCCCCCCCCC(=O)N[C@H](CO)[C@H](O)c1ccc([N+](=O)[O-])cc1 [C12-D-t-ANPPD] | 4 |  |  |  |  | CELL GROWTH (% OF CONTROL) (Example 4A, Table II, 3 μM Cn-D-t-ANPPD (C2-ceramide concentration not given), three days, listed as C12 chain analog): about 4 % OF CONTROL |
